Among the data in PubChem BioAssay (NCI) are TGI values, retold here.

Among the test systems are CCRF-CEM leukemia; NCI-H522 lung; HS 578T breast; M14 melanoma; COLO 205 colon; SF-295 CNS; CAKI-1 renal; NCI-H23 lung; IGROV1 ovarian; EKVX NSCLC; SW-620 colon; K-562 leukemia; UO-31 renal; A498 renal; RXF 393 renal; HCT-116 colon; SK-OV-3 ovarian; HOP-62 NSCLC.
Common to all, as to experiment: NCI-60 cell line screen, 48 h

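Where inhibition never reached the appropriate level, the endpoint shown equals the highest concentration tested. Otherwise, values were interpolated linearly from a five-concentration, 48-hour dose response in 96-well plates. Definition used: TGI = concentration required for complete inhibition of growth.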

For `Cc1c(C(=O)Nc2ccccc2)nnn1-c1ccnc2cc(C(F)(F)F)ccc12`, the TGI in the assay with CCRF-CEM leukemia was 81.5 µM; in the assay with NCI-H522 lung, above 100 µM; in the assay on HS 578T breast, above 100 µM; in the assay on M14 melanoma it was above 100 µM; in the assay with COLO 205 colon, above 100 µM; in the assay with SF-295 CNS, above 100 µM. Besides, the TGI in the assay with CAKI-1 renal, in the assay on NCI-H23 lung, with IGROV1 ovarian, in the assay with EKVX NSCLC, with SW-620 colon and with K-562 leukemia was above 100 µM each time. Moreover, the TGI in the assay with UO-31 renal, in the assay with A498 renal, in the assay on RXF 393 renal, in the assay on HCT-116 colon and in the assay on SK-OV-3 ovarian was above 100 µM each time.

With `O=C(c1ccccc1)N(CCCCNC(=O)C(F)(F)F)CCCNC(=O)C(F)(F)F`, the TGI with CCRF-CEM leukemia, in the assay with NCI-H522 lung, with HS 578T breast, in the assay with M14 melanoma, in the assay with COLO 205 colon and in the assay on SF-295 CNS was above 100 µM throughout. The TGI in the assay on CAKI-1 renal, in the assay on NCI-H23 lung, in the assay on IGROV1 ovarian, in the assay with EKVX NSCLC, with SW-620 colon and in the assay with K-562 leukemia was above 100 µM each time. Also, the TGI in the assay on UO-31 renal, in the assay with A498 renal, in the assay with RXF 393 renal, with HCT-116 colon and in the assay with SK-OV-3 ovarian was above 100 µM in each case.

As for `CCOC(=O)C(NC(=O)c1ccccc1)(c1ccc(S(=O)(=O)Nc2onc(C)c2C)cc1)C(F)(F)F` (stereo not drawn), the TGI in the assay with CCRF-CEM leukemia, in the assay with HS 578T breast, with M14 melanoma, in the assay on COLO 205 colon, in the assay with SF-295 CNS and with CAKI-1 renal was above 100 µM throughout. Besides, the TGI with NCI-H23 lung, in the assay with IGROV1 ovarian, with EKVX NSCLC, in the assay on SW-620 colon, in the assay on K-562 leukemia and in the assay with UO-31 renal was above 100 µM each time. For the same compound, the TGI with HOP-62 NSCLC, with RXF 393 renal, in the assay on HCT-116 colon and in the assay on SK-OV-3 ovarian was above 100 µM each time.

In the case of `COc1ccc(N/N=C/C2=CC(C)(C)C(C#N)(C#N)C(O)=C2C#N)cc1`, the TGI is above 100 µM in the assay with CCRF-CEM leukemia; above 100 µM in the assay with NCI-H522 lung; above 100 µM in the assay with HS 578T breast; above 100 µM with M14 melanoma; 49.8 µM with COLO 205 colon; above 100 µM in the assay with SF-295 CNS. Further, the TGI with CAKI-1 renal, in the assay with NCI-H23 lung, in the assay with IGROV1 ovarian, in the assay with EKVX NSCLC, in the assay with SW-620 colon and in the assay with K-562 leukemia was above 100 µM throughout. The TGI in the assay with UO-31 renal was above 100 µM; in the assay with A498 renal, 81 µM; in the assay with HOP-62 NSCLC, above 100 µM; in the assay on RXF 393 renal, above 100 µM; in the assay with HCT-116 colon, above 100 µM.

Take `O=C1CCC2(CC1CCS(=O)c1ccccc1)OCCO2` (stereo not drawn): the TGI in the assay with CCRF-CEM leukemia, in the assay with NCI-H522 lung, in the assay with HS 578T breast, in the assay with M14 melanoma, in the assay on COLO 205 colon and in the assay with SF-295 CNS was above 100 µM throughout. Moreover, the TGI with CAKI-1 renal, in the assay on NCI-H23 lung, in the assay with IGROV1 ovarian, in the assay on EKVX NSCLC, in the assay on SW-620 colon and in the assay on K-562 leukemia was above 100 µM in each case. In addition, the TGI in the assay with UO-31 renal, with A498 renal, in the assay on HOP-62 NSCLC, with RXF 393 renal and in the assay on SK-OV-3 ovarian was above 100 µM in each case.

For `CCOC(=O)[C@@]1(C(C)=O)CC(C)=C(C)C[S@]1=O`, the TGI in the assay on NCI-H522 lung, in the assay with HS 578T breast, with M14 melanoma, in the assay with COLO 205 colon, with SF-295 CNS and with CAKI-1 renal was above 100 µM in each case. The TGI in the assay with NCI-H23 lung, in the assay on IGROV1 ovarian, with EKVX NSCLC, in the assay with SW-620 colon, in the assay with K-562 leukemia and with UO-31 renal was above 100 µM each time. Further, the TGI in the assay with A498 renal, in the assay on HOP-62 NSCLC, in the assay on RXF 393 renal, with HCT-116 colon and in the assay with SK-OV-3 ovarian was above 100 µM in each case.

`O=C1NC(=NCc2ccc(F)cc2)N/C1=C\c1ccccc1Cl`: the TGI was 30.4 µM with NCI-H522 lung; above 100 µM in the assay on HS 578T breast; 31.6 µM in the assay with M14 melanoma; 37.5 µM in the assay with COLO 205 colon; 35.8 µM with SF-295 CNS; 70.8 µM in the assay on CAKI-1 renal. The TGI in the assay with IGROV1 ovarian was above 100 µM; with EKVX NSCLC it was 58.2 µM; with SW-620 colon, 31.1 µM; in the assay on K-562 leukemia, above 100 µM; in the assay on A498 renal, 34 µM; with HOP-62 NSCLC it was 35.3 µM. Also, the TGI with RXF 393 renal stood at 48.2 µM; in the assay on HCT-116 colon it was 30.3 µM; in the assay on SK-OV-3 ovarian, 63.2 µM.

On to `CSc1nc(-c2ccccc2)nc(C(C#N)C#N)n1`, for which the TGI in the assay with CCRF-CEM leukemia, with NCI-H522 lung, in the assay on HS 578T breast, in the assay with M14 melanoma, with COLO 205 colon and with SF-295 CNS was above 100 µM throughout. Besides, the TGI with CAKI-1 renal, with NCI-H23 lung, with IGROV1 ovarian, in the assay with EKVX NSCLC, with SW-620 colon and in the assay with UO-31 renal was above 100 µM throughout. Moreover, the TGI in the assay with A498 renal, with HOP-62 NSCLC, with RXF 393 renal, in the assay on HCT-116 colon and with SK-OV-3 ovarian was above 100 µM in each case.
